Source: PubChem BioAssay (NCI)
Several values for one entry are separate records, joined by “and”; a condition that tells them apart may be missing. Equal entries are not always repeated.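 Assay format: 96-well plates, 48-hour exposure. At the GI50, growth is halved. The concentration for full growth arrest is given as TGI.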

Experiments:
Assay in all cases: inhibition of tumour cell growth, NCI panel, 48 h
[1] = system: UO-31 renal
[2] = system: DU-145 prostate
[3] = system: CAKI-1 renal
[4] = system: COLO 205 colon
[5] = system: HOP-62 NSCLC
[6] = system: MALME-3M melanoma
[7] = system: PC-3 prostate
[8] = system: M14 melanoma
[9] = system: IGROV1 ovarian
[10] = system: HT29 colon

SMILES	GI50 [1]	TGI [1]	GI50 [2]	TGI [2]	GI50 [3]	TGI [3]	GI50 [4]	TGI [4]	GI50 [5]	TGI [5]	GI50 [6]	TGI [6]	GI50 [7]	TGI [7]	GI50 [8]	TGI [8]	GI50 [9]	TGI [9]	GI50 [10]	TGI [10]
Nc1c(C(=O)c2ccc(CCCN3CCOCC3)cc2)cnn1-c1ccc(F)cc1	> 25 µM	> 25 µM	> 25 µM	> 25 µM	> 25 µM	> 25 µM	> 25 µM	> 25 µM	> 25 µM	> 25 µM	> 25 µM	> 25 µM	> 25 µM	> 25 µM	> 25 µM	> 25 µM	> 25 µM	> 25 µM	> 25 µM	> 25 µM
CSc1ncnc2c1ncn2C1OC(CO)C(O)OC1O (stereo unspecified)		31.2 µM		39.4 µM		> 51.7 µM		11.8 µM		35.4 µM		70.5 µM		33.9 µM		39.1 µM		18.9 µM		> 37.4 µM
OCC1OC(n2cnc3c(Cl)nc(Cl)cc32)C(O)C1O (stereo unspecified)	> 100 µM	> 100 µM	> 100 µM	> 100 µM	> 100 µM	> 100 µM	> 100 µM	> 100 µM	> 100 µM	> 100 µM	> 100 µM	> 100 µM	> 100 µM	> 100 µM	> 100 µM	> 100 µM	> 100 µM	> 100 µM	> 100 µM	> 100 µM
CC[C@@]1(O)C(=O)OCc2c1cc1n(c2=O)Cc2c-1nc1cc3c(cc1c2C)OCO3	< 0.0001 µM	0.0415 µM	< 0.0001 µM	> 100 µM	< 0.0001 µM	0.235 µM and 0.122 µM	0.102 µM	> 100 µM	< 0.0001 µM	0.314 µM and 0.238 µM	0.000457 µM	3.92 µM	0.0254 µM	> 100 µM	< 0.0001 µM	1.01 µM	0.0351 µM		< 0.0001 µM	> 100 µM
NC1=NCCN1CC(=O)O	> 10000 µM	> 10000 µM	> 10000 µM	> 10000 µM		> 10000 µM	> 10000 µM	> 10000 µM	> 10000 µM	> 10000 µM		> 1000 µM	> 10000 µM	> 10000 µM	> 10000 µM	> 10000 µM	> 10000 µM	> 10000 µM	> 10000 µM	> 10000 µM
c1ccc(CN=C(NCc2ccccc2)NCc2ccccc2)cc1	3.07 µM	15.2 µM	5.38 µM	19.4 µM	11.1 µM	26.7 µM	1.98 µM	4.03 µM	12.7 µM	25.9 µM	3.56 µM	17.1 µM	2.76 µM	12.9 µM	4.18 µM	17.3 µM	1.66 µM	9.51 µM	5.58 µM	19.8 µM
COc1ccc(-c2c(-c3cc(OC)c(OC)c(OC)c3)noc2N)cc1		> 100 µM	0.0187 µM	1.32 µM	< 0.01 µM	> 100 µM	< 0.0123 µM	0.0551 µM	0.0239 µM	38.9 µM	13.4 µM	56.8 µM	< 0.0119 µM	> 100 µM	< 0.01 µM	> 100 µM	0.0202 µM	40.1 µM	< 0.0144 µM	0.796 µM
COc1ccc2nc3ccccc3c(NCCCN(C)CCCl)c2c1		2.67 µM		1.48 µM		1.62 µM		1.65 µM		3.05 µM		1.55 µM		1.6 µM		2.33 µM		2.21 µM		2.66 µM
CC(=O)[C@@]1(O)[C@H](C)C[C@H]2[C@@H]3C=C(C)C4=Cc5c(cnn5-c5ccccc5)C[C@]4(C)[C@H]3[C@@H](O)C[C@@]21C	2.08 µM	7.03 µM	3.24 µM	14 µM	2.46 µM	6.44 µM	1.86 µM	3.93 µM	3.58 µM	9.75 µM	1.76 µM	5.36 µM	2.06 µM	10.1 µM	2.84 µM	13.6 µM	2.64 µM	11 µM	0.946 µM	4.38 µM
Cc1cc(Oc2ccc3nc(COc4ccc(CC5SC(=O)NC5=O)cc4)n(C)c3c2)cc(C)c1N (stereo unspecified)	24.8 µM	> 81.6 µM	45.8 µM	> 100 µM	30.9 µM	> 100 µM	32.1 µM	> 100 µM	48.7 µM	> 100 µM	> 53.3 µM	> 100 µM	31.8 µM	> 90.1 µM	29.6 µM	> 78.3 µM	> 64.3 µM	> 100 µM	45.2 µM	> 100 µM
Cc1cc(O)cc(C)c1/C=C/c1cncc(-c2nn[nH]n2)c1	> 25 µM	> 25 µM	> 25 µM	> 25 µM	> 25 µM	> 25 µM	> 25 µM	> 25 µM	> 25 µM	> 25 µM	> 25 µM	> 25 µM	> 25 µM	> 25 µM	> 25 µM	> 25 µM	> 25 µM	> 25 µM	> 25 µM	> 25 µM
CCc1cc2c(cc1N1CCC(N3CCOCC3)CC1)C(C)(C)c1[nH]c3cc(C#N)ccc3c1C2=O	1.23 µM and 1.13 µM and 1 µM	3.12 µM and 2.75 µM and 2.72 µM	1.67 µM and 1.46 µM and 1.95 µM	5.96 µM and 3.52 µM and 7.19 µM	1.26 µM and 1.28 µM and 1.13 µM	12.4 µM and 4.57 µM and 3.87 µM	1.95 µM and 2.21 µM and 1.64 µM	6.37 µM and 7.16 µM and 8.45 µM	0.849 µM and 1.4 µM and 1.43 µM	2.61 µM and 3.03 µM and 3.42 µM	1.41 µM and 1.4 µM and 2.3 µM	5.62 µM and 5.27 µM and > 10 µM	0.921 µM and 0.653 µM and 0.738 µM	> 36.1 µM and 14.6 µM and > 10 µM	1.62 µM and 2.05 µM and 2.17 µM	8.88 µM and 11.9 µM and > 10 µM	2.48 µM and 1.45 µM and 0.772 µM	16.7 µM and 5.16 µM and 4 µM	0.758 µM and 0.853 µM and 1.51 µM	2.54 µM and 3.42 µM and > 10 µM
C[C@H]1[C@H]2[C@H]3CC[C@@H]4[C@@]5(C)C/C(=C/c6cccnc6)C(=O)C(C)(C)[C@@H]5CC[C@@]4(C)[C@]3(C)CC[C@]23CO[C@]1(C)[C@@H](C(=O)/C=C\c1cccnc1)C3	0.675 µM	1.37 µM	0.923 µM	1.71 µM	1.45 µM	> 15.4 µM	1.43 µM	4.53 µM	1.47 µM	> 15 µM	0.849 µM	1.91 µM	0.498 µM	3.37 µM	1.57 µM	11.9 µM	0.975 µM	2.2 µM	1.16 µM	3.73 µM
CCN(CC)CCNc1cc(-c2cccc(OC(F)(F)F)c2)nc2ccc(N3CCCC3)cc12	1.23 µM and 1.35 µM and 1.46 µM	2.5 µM and 2.69 µM and 2.99 µM	1.85 µM and 2.36 µM and 3.59 µM	4.1 µM and 5.44 µM and 12.8 µM	1.58 µM and 1.41 µM and 3.08 µM	3.29 µM and 2.76 µM and 11.5 µM	1.45 µM and 1.69 µM	2.91 µM and 3.24 µM	1.52 µM and 1.75 µM and 1.88 µM	2.96 µM and 3.24 µM and 4 µM	1.72 µM and 2.01 µM and 1.69 µM	3.34 µM and 3.76 µM and 3.17 µM	1.37 µM and 1.57 µM and 1.81 µM	2.76 µM and 3.1 µM and 3.81 µM	1.6 µM and 1.82 µM and 1.86 µM	3.12 µM and 3.51 µM and 3.63 µM	1.34 µM and 1.41 µM and 1.46 µM	2.87 µM and 3.04 µM and 3.05 µM	1.7 µM and 1.6 µM and 1.76 µM	3.47 µM and 3.33 µM and 3.73 µM
CCOC(=O)C(C)(C)C(O)C(C)C (stereo unspecified)		> 100 µM		> 100 µM		> 100 µM		> 100 µM		> 100 µM		> 100 µM		> 100 µM		> 100 µM		> 100 µM		> 100 µM
CCc1ccc2c(c1)N(CCO)C1=C(C(=O)OC1)C2c1cccc(Cl)c1 (stereo unspecified)	2.52 µM	20.9 µM	1.67 µM	13.5 µM	3.02 µM	35.1 µM	0.522 µM	2.63 µM	0.774 µM	15.8 µM	2.82 µM	27.4 µM	0.687 µM	23.4 µM	0.584 µM	12.2 µM	3.75 µM	37.6 µM	0.345 µM	11.1 µM
COC(=O)/C=C/c1cn(C(C)=O)c2ccc(Br)cc12	8.73 µM	48.5 µM	32.5 µM	> 100 µM	19.1 µM	44.2 µM	24.8 µM	> 85 µM	25 µM	> 73.5 µM	24.9 µM	> 88.8 µM	28 µM	> 100 µM	28.5 µM	> 100 µM	19.1 µM	> 100 µM	27.5 µM	> 100 µM
COc1ccc(-c2nc(N3CCN(C(=O)C4CCCCC4)CC3)c3c4c(sc3n2)CCCC4)cc1	95.4 µM	> 100 µM	> 100 µM	> 100 µM	60.6 µM	> 100 µM	> 100 µM	> 100 µM	27.5 µM	86 µM	92.1 µM	> 100 µM	26.1 µM	> 100 µM	> 100 µM	> 100 µM	41.2 µM	> 100 µM	> 100 µM	> 100 µM
COc1cc(-c2nn(-c3cccc(NC(=O)c4ccc(N5CCOCC5)c(C(F)(F)F)c4)c3)cc2-c2ccncc2)ccc1Cl	0.322 µM	8.77 µM	0.379 µM	> 39.3 µM	0.293 µM	3.19 µM	0.446 µM	1.69 µM	0.524 µM	> 58.6 µM	0.0769 µM	1.54 µM	0.166 µM	5.22 µM	0.346 µM	13.8 µM	0.405 µM	9.81 µM	0.466 µM	2.19 µM
